{
  "source": "patent US20190031857A1",
  "about": "“BLACK-COLORED POLYAMIDE COMPOSITION AND PRODUCTION AND USE THEREOF” (BASF SE, priority 2016, published 2019)",
  "key": {"[1]": {"experiment": "Solubility of Solvent Black 28 in solvents", "assay_type": "physicochemical", "procedure": "The chromium complex dye b) used in accordance with the invention is available under the name Solvent Black 28 (CAS no.: 12237-23-9, C.I. Solvent Black 28). A commercially available product is Orasol Black 045 from BASF SE. […] Solubility at 20° C. in ethanol is about 10 g/L and in methyl ethyl ketone about 400 g/L."}, "[2]": {"experiment": "Incorporation and coloring of the polymer by extrusion", "details": "attempted bulk coloring of polyethylene, above 160° C.", "procedure": "98 parts polyethylene (Grade M80064 from Sabic) were premixed in a tumbling mixer with 2 parts Solvent Black 28 (Orasol Black 045 from BASF) for 10 minutes and extruded in a twin-shaft extruder having a diameter of 18 mm and an L/D ratio of 44 at barrel temperature 210° C. A significant odor developed from the extruder nozzle; the polymer strands had expanded in the foam mold. The production of plaques by means of injection molding machines was not possible.\n99.9 parts polyamide PA6 (Ultramid B3S from BASF) were premixed in a tumbling mixer with 0.1 part Solvent Violet 13 (Orasol Blue 640 from BASF) for 10 minutes and then extruded and pelletized using a twin-shaft extruder having a diameter of 18 mm and an L/D ratio of 44 at barrel temperature 260° C. For this purpose, the natural-colored polyamide pellets were dried beforehand in a drying oven at 100° C. for 4 hours, such that the moisture content was below 0.1%. For this purpose, the moisture content was determined by means of a thermal balance."}},
  "data": [
    {"substance": "Solvent Black 28", "values": [
      {"measurement": "Solubility in ethanol", "setting": "[1]; 20° C., ethanol", "value": "about 10 g/L"},
      {"measurement": "Solubility in methyl ethyl ketone", "setting": "[1]; 20° C., methyl ethyl ketone", "value": "about 400 g/L"},
      {"measurement": "Water solubility", "setting": "[1]; water", "value": "almost water-insoluble"},
      {"measurement": "thermal stability in bulk coloring of polyethylene", "setting": "[2]", "value": "entirely inadequate thermal stability"}
    ]}
  ]
}
